# Assay results taken from article PMC12281424, “A Rac-specific competitive inhibitor of guanine nucleotide binding reduces metastasis in triple-negative breast cancer” (Cell Reports Medicine, 2025).
# Several values for one entry are separate records, joined by “and”; a condition that tells them apart may be missing. Identical values can stand only once.
# Columns and labels:
# [1] = In vivo toxicity, chronic daily intraperitoneal injection; parameters: species or system mouse; details: 1, 10 and 25 mg/kg daily i.p. for 1 month
# Method: In order to assess the anti-tumor properties of A41 in vivo, we first would like to make sure of the safety and the absence of major off-target effects of A41. […] In vivo safety has been addressed by monitoring various biological parameters in mice chronically receiving daily intraperitoneal A41 injection (1, 10, and 25 mg/kg) for 1 month. […] We then analyzed pharmacokinetics and tissue distribution of A41 following intraperitoneal injection of A41 (25 mg/kg). A41 rapidly reached its peak plasma concentration (∼15 min, 15.056 ± 0.5 μg/mL), which then declined over 2–3 h (Figure S7). A41 was detected in the liver, heart, and lungs.
# Supplementary Fig. 6: In vivo A41 toxicity. (a) Effect of chronic administration of A41 at the indicated concentrations by daily intraperitoneal injections in mice on weight gain glycemia. (b) and (c), Glycemia (b) and plasmatic concentration of transaminases (ALAT and ASAT), albumin, urea, creatinine and total protein in mice after of 1 month of chronic administration of A41 at indicated concentrations (c). N=6-7
# TA100 = assay: Bacterial cytotoxicity; type: cell-based
# Description: (§1) Data S2. Bacterial cytotoxicity of A41.
# (§2) Test Concentration %Effect Cytotoxicity (% of control) […]
# TA1535 = assay: Bacterial cytotoxicity; type: cell-based
# Description: as §1, §2
# [2] = Ames fluctuation test (7th group); type: cell-based
# Description: Data S3. Ames-fluctuation assay-A41.
# Test Concentration Count Positive Significance Fisher Exact Test
# Cyclooxygenase COX-1 = Cyclooxygenase COX-1 (Homo sapiens, UniProt P23219); assay: Safety screen; type: biochemical
# Method: (§3) Blood cell counts, kinase profiler, safety screen, bacterial cytotoxicity, Ames, micronucleus assays were performed by the company Eurofins (France). The kinase profiler was performed by the company Eurofins (Discovery, Panlab and Cerep).
# [3] = target: Protein Tyrosine Kinase, LCK (Homo sapiens, UniProt P06239); assay: Safety screen; type: biochemical
# Method: (§4) The kinase profiler was performed by the company Eurofins (Discovery, Panlab and Cerep).
# Potassium Channel [KATP] = Potassium Channel [KATP] (Cricetus cricetus, UniProt Q09427); assay: Safety screen; type: binding, hamster
# Method: as §3
# CHK1(h) = CHK1(h) (Homo sapiens, UniProt O14757); assay: Kinase Profiler; type: biochemical
# Method: as §4
# DCAMKL3(h) = DCAMKL3(h) (Homo sapiens, UniProt Q9C098); assay: Kinase Profiler; type: biochemical
# Method: as §3
# DRAK1(h) = DRAK1(h) (Homo sapiens, UniProt Q9UEE5); assay: Kinase Profiler; type: biochemical
# Method: as §3
# EGFR(h) = EGFR(h) (Homo sapiens, UniProt P00533); assay: Kinase Profiler; type: biochemical
# Method: as §4
# EGFR(T790M,L858R)(h) = EGFR(T790M,L858R)(h) (Homo sapiens, UniProt P00533, L858R/T790M); assay: Kinase Profiler; type: biochemical
# Method: as §4
# ICK(h) = ICK(h) (Homo sapiens, UniProt Q9UPZ9); assay: Kinase Profiler; type: biochemical
# Method: as §4
# JNK2α2(h) = JNK2α2(h) (Homo sapiens, UniProt P45984); assay: Kinase Profiler; type: biochemical
# Method: as §4
# JNK3(h) = JNK3(h) (Homo sapiens, UniProt P53779); assay: Kinase Profiler; type: biochemical
# Method: as §4
# LATS1(h) = LATS1(h) (Homo sapiens, UniProt O95835); assay: Kinase Profiler; type: biochemical
# Method: as §4
# MAPK2(h) = MAPK2(h) (Homo sapiens, UniProt P28482); assay: Kinase Profiler; type: biochemical
# Method: as §4
# MSK1(h) = MSK1(h) (Homo sapiens, UniProt O75582); assay: Kinase Profiler; type: biochemical
# Method: as §3
# NEK11(h) = NEK11(h) (Homo sapiens, UniProt Q8NG66); assay: Kinase Profiler; type: biochemical
# Method: as §4
# PhKγ1(h) = PhKγ1(h) (Homo sapiens, UniProt Q16816); assay: Kinase Profiler; type: biochemical
# Method: as §3
# ROCK-II(h) = ROCK-II(h) (Homo sapiens, UniProt O75116); assay: Kinase Profiler; type: biochemical
# Method: as §3
# Src(T341M)(h) = Src(T341M)(h) (Homo sapiens, UniProt P12931, T341M); assay: Kinase Profiler; type: biochemical
# Method: as §4
# TrkB(h) = TrkB(h) (Homo sapiens, UniProt Q16620); assay: Kinase Profiler; type: biochemical
# Method: as §4
# TrkC(h) = TrkC(h) (Homo sapiens, UniProt Q16288); assay: Kinase Profiler; type: biochemical
# Method: as §4
# TTBK2(h) = TTBK2(h) (Homo sapiens, UniProt Q6IQ55); assay: Kinase Profiler; type: biochemical
# Method: as §4
# [4] = target: PI3K (p110a(E545K)/p85a)(h) (Homo sapiens, UniProt P42336, E545K); assay: Kinase Profiler; type: biochemical
# Method: as §4
# PIP5K1g(h) = PIP5K1g(h) (Homo sapiens, UniProt O60331); assay: Kinase Profiler; type: biochemical
# Method: as §3
# TrkC(h), sequence (Q16288 32-839): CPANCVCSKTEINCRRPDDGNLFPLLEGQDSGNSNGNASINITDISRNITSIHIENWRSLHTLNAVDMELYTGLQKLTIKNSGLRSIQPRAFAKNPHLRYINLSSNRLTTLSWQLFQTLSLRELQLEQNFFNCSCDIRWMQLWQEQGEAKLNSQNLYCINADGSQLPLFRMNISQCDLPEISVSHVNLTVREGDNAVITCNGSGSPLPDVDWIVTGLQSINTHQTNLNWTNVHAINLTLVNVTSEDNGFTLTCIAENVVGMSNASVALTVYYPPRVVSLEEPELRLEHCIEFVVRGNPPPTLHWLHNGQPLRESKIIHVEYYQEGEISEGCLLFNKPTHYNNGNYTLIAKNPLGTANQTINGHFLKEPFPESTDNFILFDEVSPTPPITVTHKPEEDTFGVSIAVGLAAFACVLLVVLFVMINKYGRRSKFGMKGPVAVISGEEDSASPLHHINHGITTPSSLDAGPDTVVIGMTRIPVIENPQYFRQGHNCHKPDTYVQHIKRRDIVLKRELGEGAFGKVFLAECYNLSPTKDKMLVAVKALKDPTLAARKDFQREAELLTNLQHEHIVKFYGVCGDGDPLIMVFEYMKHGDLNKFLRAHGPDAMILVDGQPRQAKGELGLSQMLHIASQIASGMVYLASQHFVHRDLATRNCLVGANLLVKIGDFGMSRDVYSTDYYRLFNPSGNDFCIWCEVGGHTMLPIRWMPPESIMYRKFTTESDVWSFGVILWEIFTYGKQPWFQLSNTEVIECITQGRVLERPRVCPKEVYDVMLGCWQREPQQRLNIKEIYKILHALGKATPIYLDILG
# CHK1(h), sequence (O14757 whole entry): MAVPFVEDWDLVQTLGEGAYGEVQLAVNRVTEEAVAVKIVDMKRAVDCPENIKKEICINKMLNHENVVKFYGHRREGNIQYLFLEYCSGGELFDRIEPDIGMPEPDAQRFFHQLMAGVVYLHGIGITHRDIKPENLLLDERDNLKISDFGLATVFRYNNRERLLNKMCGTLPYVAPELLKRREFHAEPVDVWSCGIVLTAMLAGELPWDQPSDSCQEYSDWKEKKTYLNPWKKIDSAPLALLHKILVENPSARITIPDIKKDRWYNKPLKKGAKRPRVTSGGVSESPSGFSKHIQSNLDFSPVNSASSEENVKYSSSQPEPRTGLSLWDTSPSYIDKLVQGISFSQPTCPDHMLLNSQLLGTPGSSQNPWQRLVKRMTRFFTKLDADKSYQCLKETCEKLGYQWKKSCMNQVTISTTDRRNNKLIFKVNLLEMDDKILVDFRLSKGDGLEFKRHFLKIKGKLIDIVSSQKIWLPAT
# PhKγ1(h), sequence (Q16816 whole entry): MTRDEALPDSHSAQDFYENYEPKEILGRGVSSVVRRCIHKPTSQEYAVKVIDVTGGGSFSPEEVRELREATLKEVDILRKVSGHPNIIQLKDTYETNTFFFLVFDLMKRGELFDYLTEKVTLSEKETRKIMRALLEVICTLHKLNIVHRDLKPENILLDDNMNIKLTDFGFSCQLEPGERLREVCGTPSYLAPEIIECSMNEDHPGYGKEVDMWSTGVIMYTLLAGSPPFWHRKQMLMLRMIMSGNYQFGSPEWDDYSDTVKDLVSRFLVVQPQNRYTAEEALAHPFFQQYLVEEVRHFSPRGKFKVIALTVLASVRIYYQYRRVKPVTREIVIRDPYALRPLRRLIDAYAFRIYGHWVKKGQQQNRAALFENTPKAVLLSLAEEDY
# DRAK1(h), sequence (Q9UEE5 whole entry): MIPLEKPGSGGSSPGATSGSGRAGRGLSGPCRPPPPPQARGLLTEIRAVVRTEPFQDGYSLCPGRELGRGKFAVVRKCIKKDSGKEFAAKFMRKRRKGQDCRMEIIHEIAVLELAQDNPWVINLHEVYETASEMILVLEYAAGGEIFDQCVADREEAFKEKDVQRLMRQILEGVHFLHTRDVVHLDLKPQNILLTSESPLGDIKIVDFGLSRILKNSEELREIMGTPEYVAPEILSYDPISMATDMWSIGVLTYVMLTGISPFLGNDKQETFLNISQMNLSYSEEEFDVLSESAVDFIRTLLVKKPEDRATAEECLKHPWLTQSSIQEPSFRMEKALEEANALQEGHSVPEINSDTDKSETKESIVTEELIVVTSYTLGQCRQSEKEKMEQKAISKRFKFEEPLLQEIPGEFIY
# MAPK2(h), sequence (P28482 whole entry): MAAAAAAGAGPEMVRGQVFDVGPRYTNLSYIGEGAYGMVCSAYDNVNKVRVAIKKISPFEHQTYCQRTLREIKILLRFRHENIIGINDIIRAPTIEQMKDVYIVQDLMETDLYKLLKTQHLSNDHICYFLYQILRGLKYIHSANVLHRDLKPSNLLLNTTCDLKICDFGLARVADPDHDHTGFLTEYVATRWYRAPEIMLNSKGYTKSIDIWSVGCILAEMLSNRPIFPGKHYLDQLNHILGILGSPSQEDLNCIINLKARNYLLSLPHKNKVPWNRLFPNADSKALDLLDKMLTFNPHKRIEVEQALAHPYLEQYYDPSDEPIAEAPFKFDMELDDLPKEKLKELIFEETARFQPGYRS
# ROCK-II(h), sequence (O75116 whole entry): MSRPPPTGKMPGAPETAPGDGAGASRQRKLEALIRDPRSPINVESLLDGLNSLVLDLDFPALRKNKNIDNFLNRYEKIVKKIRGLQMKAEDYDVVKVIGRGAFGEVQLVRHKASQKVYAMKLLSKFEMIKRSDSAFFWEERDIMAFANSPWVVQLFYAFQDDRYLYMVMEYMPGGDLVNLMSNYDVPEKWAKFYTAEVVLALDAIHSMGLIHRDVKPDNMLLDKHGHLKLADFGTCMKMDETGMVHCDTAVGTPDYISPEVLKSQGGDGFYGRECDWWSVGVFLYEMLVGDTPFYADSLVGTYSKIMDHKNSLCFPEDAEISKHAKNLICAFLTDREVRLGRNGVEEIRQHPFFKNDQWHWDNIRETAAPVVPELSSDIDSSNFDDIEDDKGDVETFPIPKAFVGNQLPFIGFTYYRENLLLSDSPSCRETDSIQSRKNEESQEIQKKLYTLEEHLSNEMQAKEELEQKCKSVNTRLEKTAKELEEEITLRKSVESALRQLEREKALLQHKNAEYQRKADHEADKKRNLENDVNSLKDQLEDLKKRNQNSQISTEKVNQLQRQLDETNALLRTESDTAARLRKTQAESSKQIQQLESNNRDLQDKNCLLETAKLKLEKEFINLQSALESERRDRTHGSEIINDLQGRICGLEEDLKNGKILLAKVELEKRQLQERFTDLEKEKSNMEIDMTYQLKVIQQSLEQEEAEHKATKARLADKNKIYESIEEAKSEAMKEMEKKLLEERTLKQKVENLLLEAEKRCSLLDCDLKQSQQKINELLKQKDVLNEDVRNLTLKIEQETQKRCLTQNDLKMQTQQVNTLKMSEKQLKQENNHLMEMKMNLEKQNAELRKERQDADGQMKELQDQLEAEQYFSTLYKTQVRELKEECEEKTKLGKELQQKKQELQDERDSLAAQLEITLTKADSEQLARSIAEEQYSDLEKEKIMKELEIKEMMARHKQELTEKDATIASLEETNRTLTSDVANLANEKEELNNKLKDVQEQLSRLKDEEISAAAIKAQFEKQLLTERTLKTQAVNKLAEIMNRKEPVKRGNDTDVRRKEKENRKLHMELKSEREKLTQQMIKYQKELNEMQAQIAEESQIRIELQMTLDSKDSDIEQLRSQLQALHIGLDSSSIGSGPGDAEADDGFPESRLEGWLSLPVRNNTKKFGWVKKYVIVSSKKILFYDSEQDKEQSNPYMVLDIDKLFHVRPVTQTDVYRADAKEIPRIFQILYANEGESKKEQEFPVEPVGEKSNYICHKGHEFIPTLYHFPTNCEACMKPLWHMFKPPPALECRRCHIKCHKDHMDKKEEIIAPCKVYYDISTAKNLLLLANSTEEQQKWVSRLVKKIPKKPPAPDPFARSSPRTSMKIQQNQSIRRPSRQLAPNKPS
# TTBK2(h), sequence (Q6IQ55 whole entry): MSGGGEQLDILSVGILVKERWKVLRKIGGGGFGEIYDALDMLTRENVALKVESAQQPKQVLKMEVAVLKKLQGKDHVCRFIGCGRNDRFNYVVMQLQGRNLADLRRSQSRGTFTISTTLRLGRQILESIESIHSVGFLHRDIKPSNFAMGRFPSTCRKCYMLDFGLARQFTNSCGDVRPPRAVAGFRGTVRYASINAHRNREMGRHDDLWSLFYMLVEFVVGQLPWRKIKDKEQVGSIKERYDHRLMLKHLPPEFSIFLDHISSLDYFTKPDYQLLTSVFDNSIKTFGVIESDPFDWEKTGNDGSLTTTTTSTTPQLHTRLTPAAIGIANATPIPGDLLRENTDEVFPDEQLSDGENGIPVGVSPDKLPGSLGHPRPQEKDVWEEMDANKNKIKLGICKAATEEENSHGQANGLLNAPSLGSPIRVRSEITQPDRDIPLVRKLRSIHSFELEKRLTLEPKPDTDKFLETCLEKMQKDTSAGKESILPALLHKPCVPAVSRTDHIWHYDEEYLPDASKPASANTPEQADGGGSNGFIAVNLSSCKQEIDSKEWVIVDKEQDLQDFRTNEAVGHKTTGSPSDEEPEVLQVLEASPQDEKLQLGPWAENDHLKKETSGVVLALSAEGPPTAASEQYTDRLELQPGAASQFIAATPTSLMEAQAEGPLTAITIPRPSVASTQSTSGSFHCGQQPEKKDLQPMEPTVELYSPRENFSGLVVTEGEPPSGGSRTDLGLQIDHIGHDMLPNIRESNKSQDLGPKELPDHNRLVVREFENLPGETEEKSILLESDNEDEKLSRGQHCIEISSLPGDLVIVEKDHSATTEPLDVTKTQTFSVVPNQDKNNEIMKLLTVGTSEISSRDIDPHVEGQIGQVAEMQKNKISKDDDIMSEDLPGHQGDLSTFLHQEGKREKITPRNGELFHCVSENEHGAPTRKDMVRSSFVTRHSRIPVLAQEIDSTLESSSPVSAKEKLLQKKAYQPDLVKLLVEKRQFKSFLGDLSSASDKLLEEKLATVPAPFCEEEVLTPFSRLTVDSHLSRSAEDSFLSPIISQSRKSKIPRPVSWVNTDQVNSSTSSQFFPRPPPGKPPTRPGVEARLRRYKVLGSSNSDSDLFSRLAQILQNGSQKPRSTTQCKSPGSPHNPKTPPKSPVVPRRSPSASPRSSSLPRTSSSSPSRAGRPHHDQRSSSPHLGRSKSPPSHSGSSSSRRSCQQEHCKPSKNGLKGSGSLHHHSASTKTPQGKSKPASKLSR
structure (smiles),measurement,setting,value
COc1ccc(OC)c(NS(=O)(=O)c2ccc(NC(=O)CCSc3ccc(C)cc3)cc2)c1 [Compound A41],biological parameters incl. weight,[1],"None of the parameters measured, including the weight of the mice, was affected"
same,deaths,[1],No deaths
same,"visual inspection (suffering, behavior)",[1],no sign of suffering or abnormal behavior
same,"%Effect, single replicates (1st, 2nd, 3rd)","TA100; - S9, 1.0E-04 M",222.5% and 205.5% and 199.0%
same,"Cytotoxicity (% of control), Mean %Effect","TA100; - S9, 1.0E-04 M",209.0%
same,"%Effect, single replicates (1st, 2nd, 3rd)","TA100; - S9, 1.0E-05 M",116.5% and 108.6% and 92.9%
same,"Cytotoxicity (% of control), Mean %Effect","TA100; - S9, 1.0E-05 M",106.0%
same,"%Effect, single replicates (1st, 2nd, 3rd)","TA100; - S9, 1.2E-06 M",103.4% and 99.5% and 92.9%
same,"Cytotoxicity (% of control), Mean %Effect","TA100; - S9, 1.2E-06 M",98.6%
same,"%Effect, single replicates (1st, 2nd, 3rd)","TA100; - S9, 2.5E-05 M",113.9% and 111.3% and 100.8%
same,"Cytotoxicity (% of control), Mean %Effect","TA100; - S9, 2.5E-05 M",108.6%
same,"%Effect, single replicates (1st, 2nd, 3rd)","TA100; - S9, 2.5E-06 M",106.0% and 103.4% and 92.9%
same,"Cytotoxicity (% of control), Mean %Effect","TA100; - S9, 2.5E-06 M",100.8%
same,"%Effect, single replicates (1st, 2nd, 3rd)","TA100; - S9, 5.0E-05 M",112.6% and 53.1% and 102.1%
same,"%Effect, single replicates (1st, 2nd, 3rd)","TA100; - S9, 5.0E-06 M",116.5% (2×) and 91.6%
same,"Cytotoxicity (% of control), Mean %Effect","TA100; - S9, 5.0E-06 M",108.2%
same,"%Effect, single replicates (1st, 2nd, 3rd)","TA100; - S9, 6.0E-07 M",104.7% (2×) and 98.2%
same,"Cytotoxicity (% of control), Mean %Effect","TA100; - S9, 6.0E-07 M",102.5%
same,"%Effect, single replicates (1st, 2nd, 3rd)","TA1535; - S9, 1.0E-04 M",219.4% and 233.3% and 215.9%
same,"Cytotoxicity (% of control), Mean %Effect","TA1535; - S9, 1.0E-04 M",222.9%
same,"%Effect, single replicates (1st, 2nd, 3rd)","TA1535; - S9, 1.0E-05 M",96.4% and 98.7% and 108.0%
same,"Cytotoxicity (% of control), Mean %Effect","TA1535; - S9, 1.0E-05 M",101.0%
same,"%Effect, single replicates (1st, 2nd, 3rd)","TA1535; - S9, 1.2E-06 M",91.7% and 97.5% and 88.2%
same,"Cytotoxicity (% of control), Mean %Effect","TA1535; - S9, 1.2E-06 M",92.5%
same,"%Effect, single replicates (1st, 2nd, 3rd)","TA1535; - S9, 2.5E-05 M",116.1% and 99.8% and 98.7%
same,"Cytotoxicity (% of control), Mean %Effect","TA1535; - S9, 2.5E-05 M",104.9%
same,"%Effect, single replicates (1st, 2nd, 3rd)","TA1535; - S9, 2.5E-06 M",92.9% and 91.7% and 97.5%
same,"Cytotoxicity (% of control), Mean %Effect","TA1535; - S9, 2.5E-06 M",94.0%
same,"%Effect, single replicates (1st, 2nd, 3rd)","TA1535; - S9, 5.0E-05 M",168.3% and 163.7% and 175.3%
same,"Cytotoxicity (% of control), Mean %Effect","TA1535; - S9, 5.0E-05 M",169.1%
same,"%Effect, single replicates (1st, 2nd, 3rd)","TA1535; - S9, 5.0E-06 M",96.4% and 95.2% and 99.8%
same,"Cytotoxicity (% of control), Mean %Effect","TA1535; - S9, 5.0E-06 M",97.1%
same,"%Effect, single replicates (1st, 2nd, 3rd)","TA1535; - S9, 6.0E-07 M",89.4% and 96.4% and 94.0%
same,"Cytotoxicity (% of control), Mean %Effect","TA1535; - S9, 6.0E-07 M",93.3%
same,Count Positive (# of wells),[2]; 1.0E-04 M,1
same,Count Positive (# of wells),[2]; 1.0E-05 M,0
same,Count Positive (# of wells),[2]; 5.0E-05 M,0
same,Count Positive (# of wells),[2]; 5.0E-06 M,1
same,% inh.,Cyclooxygenase COX-1,-11%
same,% inh.,[3],14%
same,% inh.,Potassium Channel [KATP],11%
same,Activity(%),CHK1(h),120%
same,Activity(%),DCAMKL3(h),104%
same,Activity(%),DRAK1(h),101%
same,Activity(%),EGFR(h),115%
same,Activity(%),"EGFR(T790M,L858R)(h)",104%
same,Activity(%),ICK(h),77%
same,Activity(%),JNK2α2(h),101%
same,Activity(%),JNK3(h),123%
same,Activity(%),LATS1(h),98%
same,Activity(%),MAPK2(h),103%
same,Activity(%),MSK1(h),117%
same,Activity(%),NEK11(h),99%
same,Activity(%),PhKγ1(h),102%
same,Activity(%),ROCK-II(h),93%
same,Activity(%),Src(T341M)(h),89%
same,Activity(%),TrkB(h),108%
same,Activity(%),TrkC(h),104%
same,Activity(%),TTBK2(h),106%
same,Activity(%),[4],105%
same,Activity(%),PIP5K1g(h),104%
